Results published in patent publication US10597388B2, “Pyridazinone herbicides” (FMC CORPORATION, priority 2014, dated 2020).

Columns and labels:
Type in all cases: in vivo
[1] = system: pigweed (Amaranthus retroflexus); assay: Test A greenhouse herbicide test, pre- and postemergence
Method in brief: (§1)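 Seeds sown in loam–sand blend got a preemergence directed soil spray of compound in non-phytotoxic solvent with surfactant. Postemergence treatment was given at 2–10 cm, one- to two-leaf stage. After ~10 d in greenhouse, injury was rated visually vs untreated controls, 0 (no effect) to 100 (complete control).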

corn (Zea mays) = assay: as above; conditions: Postemergence; for Corn plant response rating: 0 to 100 scale, 0 is no effect, 100 is complete control
Method in brief: as §1

[2] = system: wheat (Triticum aestivum); assay: as above; conditions: Postemergence; for Wheat plant response rating: 0 to 100 scale, 0 is no effect, 100 is complete control
Method in brief: as §1

[3] = system: ragweed (common ragweed, Ambrosia elatior); assay: as above
Method in brief: as §1

[4] = system: ryegrass, Italian (Italian ryegrass, Lolium multiflorum); assay: as above
Method in brief: as §1

kochia (Kochia scoparia) = assay: as above
Method in brief: as §1

[5] = system: foxtail, giant (giant foxtail, Setaria faberii); assay: as above
Method in brief: as §1

[6] = system: johnsongrass (Sorghum halepense); assay: Test C greenhouse herbicide test, pre- and postemergence
Method in brief: (§2)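 Preemergence: seeds sown in a loam soil–sand blend and sprayed with test chemicals in a non-phytotoxic solvent mixture containing surfactant. Postemergence: plants grown in peat-based medium and treated at 2 to 18 cm (1- to 4-leaf stage). After 13 to 15 d in a greenhouse, injury was visually rated 0–100 against controls.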

[7] = system: oilseed rape (Brassica napus); assay: as above
Method in brief: as §2

[8] = system: ragweed (common ragweed, Ambrosia elatior); assay: as above
Method in brief: as §2

[9] = Postemergence, 125 g ai/ha, 0 to 100 scale where 0 is no effect and 100 is complete control
[10] = Postemergence, 500 g ai/ha, visual rating after approx. 10 d, 0 to 100 scale (0 no effect, 100 complete control)
[11] = Preemergence, 125 g ai/ha, 0 to 100 scale where 0 is no effect and 100 is complete control
[12] = Preemergence, 500 g ai/ha, 0 to 100 scale where 0 is no effect and 100 is complete control
[13] = 125 g ai/ha, 0 to 100 scale where 0 is no effect and 100 is complete control
[14] = 500 g ai/ha, visual rating after approx. 10 d, 0 to 100 scale (0 no effect, 100 complete control)
[15] = Postemergence, 31 g ai/ha, scale 0 to 100 (0 no effect, 100 complete control)
[16] = Postemergence, 62 g ai/ha, 0 to 100 scale (0 no effect, 100 complete control)
[17] = Postemergence, 250 g ai/ha, scale 0 to 100, 0 no effect, 100 complete control, 13 to 15 d
[18] = Preemergence, 31 g ai/ha, scale 0 to 100, 0 is no effect, 100 is complete control
[19] = Preemergence, 62 g ai/ha, scale 0 to 100, 0 is no effect, 100 is complete control
[20] = Preemergence, 125 g ai/ha, scale 0 to 100, 0 is no effect, 100 is complete control
[21] = Preemergence, 250 g ai/ha, scale 0 to 100, 0 no effect, 100 complete control
[22] = postemergence, 125 g ai/ha, scale 0 to 100, 0 no effect, 100 complete control
[23] = Postemergence, 125 g ai/ha, visual rating after approx. 10 d, 0 to 100 scale (0 no effect, 100 complete control)
[24] = Postemergence, 500 g ai/ha, 0 to 100 scale, 0 is no effect, 100 is complete control
[25] = Preemergence, 500 g ai/ha, 0 to 100 scale, 0 no effect, 100 complete control
[26] = Postemergence, 31 g ai/ha, 0 to 100 scale (0 no effect, 100 complete control)
[27] = Postemergence, 125 g ai/ha, scale 0 to 100, 0 is no effect, 100 is complete control
[28] = postemergence, 62 g ai/ha, scale 0 to 100, 0 no effect, 100 complete control
[29] = Postemergence, 1000 g ai/ha, 0 to 100 scale, 0 is no effect, 100 is complete control
[30] = Preemergence, 1000 g ai/ha, 0 to 100 scale, 0 no effect, 100 complete control

Cc1nn(C)c(=O)c(-c2ccc(Cl)c3ccccc23)c1O [Compound 139]
Plant response rating, Pigweed [1, 9]: 60
Plant response rating, Pigweed [1, 10]: 100
Pigweed plant response rating [1, 11]: 100
Plant response rating, Pigweed [1, 12]: 100
Plant response rating, Corn (corn (Zea mays); [13]): 30
Plant response rating, Corn (corn (Zea mays); [14]): 40
Plant response rating, Wheat [2, 13]: 30
Plant response rating, Wheat [2, 14]: 30
Plant response rating, Ragweed [3, 9]: 100
Plant response rating, Ragweed [3, 10]: 100
Plant response rating, Ragweed [3, 12]: 100
Plant response rating, Ryegrass, Italian [4, 9]: 100
Plant response rating, Ryegrass, Italian [4, 10]: 100
Plant response rating, Ryegrass, Italian [4, 12]: 100
Plant response rating, Kochia (kochia (Kochia scoparia); [9]): 100
Plant response rating, Kochia (kochia (Kochia scoparia); [10]): 100
Kochia plant response rating (kochia (Kochia scoparia); [11]): 100
Plant response rating, Kochia (kochia (Kochia scoparia); [12]): 100
Plant response rating, Foxtail, Giant [5, 9]: 70
Plant response rating, Foxtail, Giant [5, 10]: 100
Foxtail, Giant plant response rating [5, 11]: 60
Plant response rating, Foxtail, Giant [5, 12]: 100
Plant response rating, Johnsongrass [6, 15]: 5
Johnsongrass plant response rating [6, 16]: 5
Plant response rating, Johnsongrass [6, 17]: 25
Plant response rating, Johnsongrass [6, 18]: 5
Plant response rating, Johnsongrass [6, 19]: 35
Plant response rating, Johnsongrass [6, 20]: 35
Johnsongrass plant response rating [6, 21]: 25
Johnsongrass plant response rating [6, 22]: 15
Plant response rating, Oilseed Rape [7, 15]: 95
Oilseed Rape plant response rating [7, 16]: 95
Plant response rating, Oilseed Rape [7, 17]: 95
Plant response rating, Oilseed Rape [7, 18]: 20
Plant response rating, Oilseed Rape [7, 19]: 98
Plant response rating, Oilseed Rape [7, 20]: 98
Oilseed Rape plant response rating [7, 21]: 100
Oilseed Rape plant response rating [7, 22]: 98
Plant response rating, Ragweed [8, 15]: 0
Ragweed plant response rating [8, 16]: 0
Plant response rating, Ragweed [8, 17]: 0
Plant response rating, Ragweed [8, 18]: 75
Plant response rating, Ragweed [8, 19]: 90
Plant response rating, Ragweed [8, 20]: 95
Ragweed plant response rating [8, 21]: 100
Ragweed plant response rating [8, 22]: 0

Cc1ccc2sc(C)c(-c3c(OC(=O)C(C)(C)C)c(C)nn(C)c3=O)c2c1 [Compound 26]
Plant response rating, Pigweed [1, 23]: 80
Pigweed plant response rating [1, 24]: 90
Pigweed plant response rating [1, 11]: 80
Plant response rating, Pigweed [1, 25]: 100
Plant response rating, Corn (corn (Zea mays); 125 g ai/ha, visual rating after approx. 10 d, 0 to 100 scale (0 no effect, 100 complete control)): 0
Corn plant response rating (corn (Zea mays); 500 g ai/ha): 0
Plant response rating, Wheat [2, 13]: 0
Wheat plant response rating ([2]; 500 g ai/ha): 0
Plant response rating, Ragweed [3, 23]: 60
Ragweed plant response rating [3, 24]: 90
Ragweed plant response rating [3, 11]: 20
Plant response rating, Ragweed [3, 25]: 40
Plant response rating, Ryegrass, Italian [4, 9]: 60
Ryegrass, Italian plant response rating [4, 24]: 90
Ryegrass, Italian plant response rating [4, 11]: 30
Plant response rating, Ryegrass, Italian [4, 25]: 70
Plant response rating, Kochia (kochia (Kochia scoparia); [23]): 80
Kochia plant response rating (kochia (Kochia scoparia); [24]): 90
Kochia plant response rating (kochia (Kochia scoparia); [11]): 30
Plant response rating, Kochia (kochia (Kochia scoparia); [25]): 30
Plant response rating, Foxtail, Giant [5, 23]: 10
Foxtail, Giant plant response rating [5, 24]: 60
Foxtail, Giant plant response rating [5, 11]: 30
Plant response rating, Foxtail, Giant [5, 25]: 50
Johnsongrass plant response rating [6, 26]: 5
Plant response rating, Johnsongrass [6, 27]: 5
Plant response rating, Johnsongrass [6, 17]: 5
Johnsongrass plant response rating [6, 28]: 5
Oilseed Rape plant response rating [7, 26]: 0
Plant response rating, Oilseed Rape [7, 27]: 5
Plant response rating, Oilseed Rape [7, 17]: 5
Oilseed Rape plant response rating [7, 28]: 0
Ragweed plant response rating [8, 26]: 15
Plant response rating, Ragweed [8, 27]: 85
Plant response rating, Ragweed [8, 17]: 90
Ragweed plant response rating [8, 28]: 70

CC(=O)Oc1c(C)nn(C)c(=O)c1-c1c(C)sc2ccc(C(F)(F)F)cc12 [Compound 132]
Plant response rating, Pigweed [1, 9]: 60
Plant response rating, Pigweed [1, 10]: 90
Pigweed plant response rating [1, 11]: 90
Plant response rating, Pigweed [1, 12]: 100
Plant response rating, Corn (corn (Zea mays); [13]): 0
Plant response rating, Corn (corn (Zea mays); [14]): 10
Plant response rating, Wheat [2, 13]: 0
Plant response rating, Wheat [2, 14]: 20
Plant response rating, Ragweed [3, 9]: 100
Plant response rating, Ragweed [3, 10]: 100
Ragweed plant response rating [3, 11]: 80
Plant response rating, Ragweed [3, 12]: 90
Plant response rating, Ryegrass, Italian [4, 9]: 100
Plant response rating, Ryegrass, Italian [4, 10]: 100
Ryegrass, Italian plant response rating [4, 11]: 90
Plant response rating, Ryegrass, Italian [4, 12]: 90
Plant response rating, Kochia (kochia (Kochia scoparia); [9]): 50
Plant response rating, Kochia (kochia (Kochia scoparia); [10]): 80
Kochia plant response rating (kochia (Kochia scoparia); [11]): 60
Plant response rating, Kochia (kochia (Kochia scoparia); [12]): 90
Plant response rating, Foxtail, Giant [5, 9]: 60
Plant response rating, Foxtail, Giant [5, 10]: 80
Foxtail, Giant plant response rating [5, 11]: 70
Plant response rating, Foxtail, Giant [5, 12]: 90
Plant response rating, Johnsongrass [6, 15]: 0
Johnsongrass plant response rating [6, 16]: 5
Plant response rating, Johnsongrass [6, 17]: 10
Plant response rating, Johnsongrass [6, 18]: 15
Plant response rating, Johnsongrass [6, 19]: 10
Plant response rating, Johnsongrass [6, 20]: 55
Johnsongrass plant response rating [6, 21]: 25
Johnsongrass plant response rating [6, 22]: 5
Plant response rating, Oilseed Rape [7, 15]: 5
Oilseed Rape plant response rating [7, 16]: 10
Plant response rating, Oilseed Rape [7, 17]: 40
Plant response rating, Oilseed Rape [7, 18]: 70
Plant response rating, Oilseed Rape [7, 19]: 85
Plant response rating, Oilseed Rape [7, 20]: 30
Oilseed Rape plant response rating [7, 21]: 90
Oilseed Rape plant response rating [7, 22]: 5
Plant response rating, Ragweed [8, 15]: 65
Ragweed plant response rating [8, 16]: 95
Plant response rating, Ragweed [8, 17]: 98
Plant response rating, Ragweed [8, 18]: 70
Plant response rating, Ragweed [8, 19]: 85
Plant response rating, Ragweed [8, 20]: 95
Ragweed plant response rating [8, 21]: 100
Ragweed plant response rating [8, 22]: 95

CCc1ccc2ccccc2c1-c1c(O)c(C)nn(C)c1=O [Compound 32]
Pigweed plant response rating [1, 29]: 100
Plant response rating, Pigweed [1, 30]: 100
Corn plant response rating (corn (Zea mays); 1000 g ai/ha): 50
Wheat plant response rating ([2]; 1000 g ai/ha): 100
Ragweed plant response rating [3, 29]: 100
Plant response rating, Ragweed [3, 30]: 90
Ryegrass, Italian plant response rating [4, 29]: 100
Plant response rating, Ryegrass, Italian [4, 30]: 100
Kochia plant response rating (kochia (Kochia scoparia); [29]): 100
Plant response rating, Kochia (kochia (Kochia scoparia); [30]): 100
Foxtail, Giant plant response rating [5, 29]: 90
Plant response rating, Foxtail, Giant [5, 30]: 100
Johnsongrass plant response rating [6, 26]: 5
Plant response rating, Johnsongrass [6, 27]: 15
Plant response rating, Johnsongrass [6, 17]: 35
Plant response rating, Johnsongrass [6, 18]: 0
Plant response rating, Johnsongrass [6, 19]: 0
Plant response rating, Johnsongrass [6, 20]: 10
Johnsongrass plant response rating [6, 21]: 45
Johnsongrass plant response rating [6, 28]: 25
Oilseed Rape plant response rating [7, 26]: 10
Plant response rating, Oilseed Rape [7, 27]: 60
Plant response rating, Oilseed Rape [7, 17]: 90
Plant response rating, Oilseed Rape [7, 18]: 25
Plant response rating, Oilseed Rape [7, 19]: 90
Plant response rating, Oilseed Rape [7, 20]: 90
Oilseed Rape plant response rating [7, 21]: 100
Oilseed Rape plant response rating [7, 28]: 60
Ragweed plant response rating [8, 26]: 85
Plant response rating, Ragweed [8, 27]: 98
Plant response rating, Ragweed [8, 17]: 98
Plant response rating, Ragweed [8, 18]: 85
Plant response rating, Ragweed [8, 19]: 90
Plant response rating, Ragweed [8, 20]: 95
Ragweed plant response rating [8, 21]: 98
Ragweed plant response rating [8, 28]: 90
